Assay results: patent US12172990B2 (Constellation Pharmaceuticals, Inc., priority 2018, dated 2024)

What was measured:
[1] = molecular target: human TREX2 (residues M44-A279) (Homo sapiens (Human), UniProt Q9BQ50); assay: TREX2 Biochemical Assay (fluorescence assay measuring degradation of dsDNA substrate); settings: 2.5 nM TREX2, 60 nM dsDNA substrate, 25 minutes at room temperature
Procedure, shortened: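 Final conditions: 2.5 nM His-Tev-tagged TREX2 (E. coli-expressed), 60 nM fluorophore/quencher-labelled dsDNA, 50 mM Tris pH 7.4, 150 mM NaCl, 100 mM MgCl2, 1% DMSO; 10-point compound dose-response. Incubated 25 min at room temperature, then EDTA-quenched; fluorescence read at ex 570/em 615 nm. IC50 from four-parameter fit against pre-quenched and no-inhibitor controls.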

full length human TREX1 = full length human TREX1 (Homo sapiens (Human), UniProt Q9NSU2); assay: TREX1 Biochemical Assay (fluorescence assay measuring degradation of dsDNA substrate); settings: 150 pM TREX1, 60 nM dsDNA substrate, 25 minutes at room temperature
Chain of full length human TREX1 (Q9NSU2 whole entry): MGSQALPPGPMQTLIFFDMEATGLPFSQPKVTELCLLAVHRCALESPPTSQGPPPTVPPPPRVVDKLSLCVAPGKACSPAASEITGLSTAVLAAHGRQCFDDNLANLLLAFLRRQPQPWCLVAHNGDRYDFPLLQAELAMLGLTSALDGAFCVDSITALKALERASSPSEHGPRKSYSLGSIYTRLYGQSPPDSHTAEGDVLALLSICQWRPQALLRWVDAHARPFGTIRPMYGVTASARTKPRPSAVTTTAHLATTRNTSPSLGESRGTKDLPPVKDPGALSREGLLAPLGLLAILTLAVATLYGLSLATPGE
Procedure, shortened: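 His-Tev-tagged full-length human TREX1 expressed in E. coli, 150 pM final, with 60 nM TEX615/quencher-labelled 9-mer dsDNA in Tris pH 7.4, NaCl, DTT, BSA, Tween-20, MgCl2 and 1.0% DMSO; 25 min at room temperature, EDTA-quenched. Fluorescence 615 nm (excitation 570 nm); 10-point IC50 by four-parameter fit against pre-quenched and no-inhibitor controls.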

Chain of human TREX2 (residues M44-A279) (Q9BQ50 whole entry, the tested form may be a part): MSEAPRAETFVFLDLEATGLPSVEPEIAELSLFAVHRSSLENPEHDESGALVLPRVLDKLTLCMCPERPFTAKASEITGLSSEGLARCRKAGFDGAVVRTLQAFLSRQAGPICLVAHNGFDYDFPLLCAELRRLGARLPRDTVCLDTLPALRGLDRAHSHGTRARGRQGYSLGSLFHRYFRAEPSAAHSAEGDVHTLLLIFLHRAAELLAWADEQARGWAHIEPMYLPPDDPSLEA

`Cn1c(C2CCCN(C(=O)c3cccnc3)C2)nc(C(=O)Nc2cnoc2)c(O)c1=O` (centres unmarked) [Example 62, 5-hydroxy-N-(isoxazol-4-yl)-1-methyl-2-(1-nicotinoylpiperidin-3-yl)-6-oxo-1,6-dihydropyrimidine-4-carboxamide] showed an IC50 [1] of 1000 to 10000 nM and an IC50 (full length human TREX1) of 100 to 1000 nM.
`Cn1c(C2CCCN(C(=O)c3ccncc3)C2)nc(C(=O)Nc2cnoc2)c(O)c1=O` (centres unmarked) [Example 63, 5-hydroxy-2-(1-isonicotinoylpiperidin-3-yl)-N-(isoxazol-4-yl)-1-methyl-6-oxo-1,6-dihydropyrimidine-4-carboxamide] was tested, and the IC50 [1] was 1000 to 10000 nM and the IC50 (full length human TREX1) was 100 to 1000 nM.
Compound `CC(=O)N1CCCC(c2nc(C(=O)Nc3cnoc3)c(O)c(=O)n2C)C1` (centres unmarked) [Example 64, 2-(1-acetylpiperidin-3-yl)-5-hydroxy-N-(isoxazol-4-yl)-1-methyl-6-oxo-1,6-dihydropyrimidine-4-carboxamide] has an IC50 [1] of 10000 to 100000 nM and an IC50 (full length human TREX1) of 100 to 1000 nM.
In the case of `Cn1c(C2CCCN(C(=O)Nc3ccccc3)C2)nc(C(=O)Nc2cnoc2)c(O)c1=O` (centres unmarked) [Example 65, 5-hydroxy-N-(isoxazol-4-yl)-1-methyl-6-oxo-2-(1-(phenylcarbamoyl)piperidin-3-yl)-1,6-dihydropyrimidine-4-carboxamide], the IC50 [1] is reported as 1000 to 10000 nM and the IC50 (full length human TREX1) is reported as 100 to 1000 nM.
For `Cn1c(-c2ccccc2-c2cccnc2)nc(C(=O)Nc2cnoc2)c(O)c1=O` [Example 66, 5-hydroxy-N-(isoxazol-4-yl)-1-methyl-6-oxo-2-(2-(pyridin-3-yl)phenyl)-1,6-dihydropyrimidine-4-carboxamide], the IC50 [1] was 10000 to 100000 nM and the IC50 (full length human TREX1) was 100 to 1000 nM.
For `Cn1c(-c2ccccc2-c2ccncc2)nc(C(=O)Nc2cnoc2)c(O)c1=O` [Example 67, 5-hydroxy-N-(isoxazol-4-yl)-1-methyl-6-oxo-2-(2-(pyridin-4-yl)phenyl)-1,6-dihydropyrimidine-4-carboxamide], the IC50 [1] was 10000 to 100000 nM and the IC50 (full length human TREX1) was 1000 to 10000 nM.
In the case of `Cn1c(-c2cc(Br)ccc2OCCO)nc(C(=O)Nc2cnoc2)c(O)c1=O` [Example 70, 2-(5-bromo-2-(2-hydroxyethoxy)phenyl)-5-hydroxy-N-(isoxazol-4-yl)-1-methyl-6-oxo-1,6-dihydropyrimidine-4-carboxamide], the IC50 [1] is reported as 1000 to 10000 nM and the IC50 (full length human TREX1) is reported as less than 100 nM.
For `Cn1nc(CCO)c(-c2nc(C(=O)Nc3cnoc3)c(O)c(=O)n2C)n1` [Example 73, 5-hydroxy-2-(5-(2-hydroxyethyl)-2-methyl-2H-1,2,3-triazol-4-yl)-N-(isoxazol-4-yl)-1-methyl-6-oxo-1,6-dihydropyrimidine-4-carboxamide], the IC50 [1] was 10000 to 100000 nM and the IC50 (full length human TREX1) was 100 to 1000 nM.
`Cn1nnc(-c2nc(C(=O)Nc3cnoc3)c(O)c(=O)n2C)c1CCO` [Example 74, 5-hydroxy-2-(5-(2-hydroxyethyl)-1-methyl-1H-1,2,3-triazol-4-yl)-N-(isoxazol-4-yl)-1-methyl-6-oxo-1,6-dihydropyrimidine-4-carboxamide] showed an IC50 [1] of 10000 to 100000 nM and an IC50 (full length human TREX1) of 1000 to 10000 nM.
In the case of `Cn1c(-c2ccccc2NCCCO)nc(C(=O)Nc2cnoc2)c(O)c1=O` [Example 75, 5-hydroxy-2-(2-((3-hydroxypropyl)amino)phenyl)-N-(isoxazol-4-yl)-1-methyl-6-oxo-1,6-dihydropyrimidine-4-carboxamide], the IC50 [1] is reported as greater than 100000 nM and the IC50 (full length human TREX1) is reported as greater than 10000 nM.
For `Cn1c(-c2ccccc2N[C@H]2C[C@@H](O)C2)nc(C(=O)Nc2cnoc2)c(O)c1=O` [Example 76, 5-hydroxy-2-(2-(((1s,3s)-3-hydroxycyclobutyl)amino)phenyl)-N-(isoxazol-4-yl)-1-methyl-6-oxo-1,6-dihydropyrimidine-4-carboxamide], the IC50 [1] was 10000 to 100000 nM and the IC50 (full length human TREX1) was 100 to 1000 nM.
For `Cn1c(-c2cccc(Br)c2CCO)nc(C(=O)Nc2cnoc2)c(O)c1=O` [Example 78, 2-(3-bromo-2-(2-hydroxyethyl)phenyl)-5-hydroxy-N-(isoxazol-4-yl)-1-methyl-6-oxo-1,6-dihydropyrimidine-4-carboxamide], the IC50 [1] was 1000 to 10000 nM and the IC50 (full length human TREX1) was less than 100 nM.
`C[C@H](Cc1ccccc1)c1nc(C(=O)Nc2cnoc2)c(O)c(=O)n1C` [Example 79, (R)-5-hydroxy-N-(isoxazol-4-yl)-1-methyl-6-oxo-2-(1-phenylpropan-2-yl)-1,6-dihydropyrimidine-4-carboxamide] showed an IC50 [1] of 1000 to 10000 nM and an IC50 (full length human TREX1) of less than 100 nM.
Compound `C[C@@H](Cc1ccccc1)c1nc(C(=O)Nc2cnoc2)c(O)c(=O)n1C` [Example 80, (S)-5-hydroxy-N-(isoxazol-4-yl)-1-methyl-6-oxo-2-(1-phenylpropan-2-yl)-1,6-dihydropyrimidine-4-carboxamide] has an IC50 [1] of 1000 to 10000 nM and an IC50 (full length human TREX1) of less than 100 nM.
`Cn1c([C@H]2CCC[C@@H](NC(=O)c3ccc(Cl)c(Cl)c3)C2)nc(C(=O)Nc2cnoc2)c(O)c1=O` [Example 82, 2-((1S,3R)-3-(3,4-dichlorobenzamido)cyclohexyl)-5-hydroxy-N-(isoxazol-4-yl)-1-methyl-6-oxo-1,6-dihydropyrimidine-4-carboxamide] gave an IC50 [1] of 10000 to 100000 nM and an IC50 (full length human TREX1) of 1000 to 10000 nM.
`C[C@@H]1CC[C@H](c2nc(C(=O)Nc3cnoc3)c(O)c(=O)n2C)CN1C(=O)c1ccc(Cl)c(Cl)c1` [Example 83, 2-((3S,6R)-1-(3,4-dichlorobenzoyl)-6-methylpiperidin-3-yl)-5-hydroxy-N-(isoxazol-4-yl)-1-methyl-6-oxo-1,6-dihydropyrimidine-4-carboxamide] showed an IC50 [1] of 10000 to 100000 nM and an IC50 (full length human TREX1) of 1000 to 10000 nM.
`C[C@H]1CC[C@H](c2nc(C(=O)Nc3cnoc3)c(O)c(=O)n2C)CN1C(=O)c1ccc(Cl)c(Cl)c1` [Example 84, 2-((3S,6S)-1-(3,4-dichlorobenzoyl)-6-methylpiperidin-3-yl)-5-hydroxy-N-(isoxazol-4-yl)-1-methyl-6-oxo-1,6-dihydropyrimidine-4-carboxamide] was tested, and the IC50 [1] was 1000 to 10000 nM and the IC50 (full length human TREX1) was less than 100 nM.
`Cn1c([C@H]2CCN(C(=O)c3ccc(Cl)cc3)C2)nc(C(=O)Nc2cnoc2)c(O)c1=O` [Example 85, (S)-2-(1-(4-chlorobenzoyl)pyrrolidin-3-yl)-5-hydroxy-N-(isoxazol-4-yl)-1-methyl-6-oxo-1,6-dihydropyrimidine-4-carboxamide] showed an IC50 [1] of 10000 to 100000 nM and an IC50 (full length human TREX1) of 100 to 1000 nM.
In the case of `Cn1c([C@@H]2CCN(C(=O)c3ccc(Cl)cc3)C2)nc(C(=O)Nc2cnoc2)c(O)c1=O` [Example 86, (R)-2-(1-(4-chlorobenzoyl)pyrrolidin-3-yl)-5-hydroxy-N-(isoxazol-4-yl)-1-methyl-6-oxo-1,6-dihydropyrimidine-4-carboxamide], the IC50 [1] is reported as 10000 to 100000 nM and the IC50 (full length human TREX1) is reported as 100 to 1000 nM.
`Cn1c(C2CCCN(S(C)(=O)=O)C2)nc(C(=O)Nc2cnoc2)c(O)c1=O` (centres unmarked) [Example 87, 5-hydroxy-N-(isoxazol-4-yl)-1-methyl-2-(1-(methylsulfonyl)piperidin-3-yl)-6-oxo-1,6-dihydropyrimidine-4-carboxamide] was tested, and the IC50 [1] was 10000 to 100000 nM and the IC50 (full length human TREX1) was 1000 to 10000 nM.
`Cn1c([C@H]2CCCN(C(=O)c3ccc(F)c(Cl)c3)C2)nc(C(=O)Nc2cnoc2)c(O)c1=O` [Example 88, (S)-2-(1-(3-chloro-4-fluorobenzoyl)piperidin-3-yl)-5-hydroxy-N-(isoxazol-4-yl)-1-methyl-6-oxo-1,6-dihydropyrimidine-4-carboxamide] showed an IC50 [1] of 1000 to 10000 nM and an IC50 (full length human TREX1) of less than 100 nM.
`Cn1c([C@H]2CCCN(C(=O)Cc3ccc(F)c(F)c3)C2)nc(C(=O)Nc2cnoc2)c(O)c1=O` [Example 91, (S)-2-(1-(2-(3,4-difluorophenyl)acetyl)piperidin-3-yl)-5-hydroxy-N-(isoxazol-4-yl)-1-methyl-6-oxo-1,6-dihydropyrimidine-4-carboxamide] showed an IC50 [1] of 10000 to 100000 nM and an IC50 (full length human TREX1) of 100 to 1000 nM.
`Cn1c([C@H]2CCCN(S(=O)(=O)c3ccc(Cl)c(Cl)c3)C2)nc(C(=O)Nc2cnoc2)c(O)c1=O` [Example 92, (S)-2-(1-((3,4-dichlorophenyl)sulfonyl)piperidin-3-yl)-5-hydroxy-N-(isoxazol-4-yl)-1-methyl-6-oxo-1,6-dihydropyrimidine-4-carboxamide] showed an IC50 [1] of 10000 to 100000 nM and an IC50 (full length human TREX1) of 100 to 1000 nM.
With `Cn1c(C2CCCN(C(=O)c3cccnc3)C2)nc(C(=O)Nc2cnoc2)c(O)c1=O` (centres unmarked) [Example 93, 5-hydroxy-N-(isoxazol-4-yl)-1-methyl-2-(1-nicotinoylpiperidin-3-yl)-6-oxo-1,6-dihydropyrimidine-4-carboxamide] the IC50 [1] was 1000 to 10000 nM and the IC50 (full length human TREX1) was 100 to 1000 nM.
`Cn1c(C2CCCN(C(=O)c3cn[nH]c3)C2)nc(C(=O)Nc2cnoc2)c(O)c1=O` (centres unmarked) [Example 94, 2-(1-(1H-pyrazole-4-carbonyl)piperidin-3-yl)-5-hydroxy-N-(isoxazol-4-yl)-1-methyl-6-oxo-1,6-dihydropyrimidine-4-carboxamide] showed an IC50 [1] of 10000 to 100000 nM and an IC50 (full length human TREX1) of 100 to 1000 nM.
Work on `CC(C)CNC(=O)N1CCCC(c2nc(C(=O)Nc3cnoc3)c(O)c(=O)n2C)C1` (centres unmarked) [Example 95] yielded an IC50 [1] of 10000 to 100000 nM and an IC50 (full length human TREX1) of 100 to 1000 nM.
For `CC(C)C(=O)N1CCCC(c2nc(C(=O)Nc3cnoc3)c(O)c(=O)n2C)C1` (centres unmarked) [Example 96, 5-hydroxy-2-(1-isobutyrylpiperidin-3-yl)-N-(isoxazol-4-yl)-1-methyl-6-oxo-1,6-dihydropyrimidine-4-carboxamide], the IC50 [1] was 10000 to 100000 nM and the IC50 (full length human TREX1) was 100 to 1000 nM.
For `Cn1c([C@H]2CCCN(C(=O)c3ccc(Cl)c(Cl)c3)C2)nc(C(=O)Nc2cnoc2)c(O)c1=O` [Example 97, (S)-2-(1-(3,4-dichlorobenzoyl)piperidin-3-yl)-5-hydroxy-N-(isoxazol-4-yl)-1-methyl-6-oxo-1,6-dihydropyrimidine-4-carboxamide], the IC50 [1] was less than 1000 nM and the IC50 (full length human TREX1) was less than 100 nM.
